According to US6338843B1, “Biologically active materials” (priority 1997, dated 2002):

How the values were obtained:
[1] = test system: L1210 cells; conditions: 72 h incubation, MTT
Protocol: L1210 cells were seeded at a density of 1×10^4 cells per well into 96 well ‘v’ bottomed microtiter plates (Costar) in RPMI 1640 tissue culture media (Gibeo) supplemented with 10% Foetal Calf Scrum (FCS) (Gibeo). All incubations were carried out at 37° C. in an atmosphere of 5% CO2.
The cells were then left for 24 h. Prior to being incubated with the polymers the cells were centrifuged at 1000×g for 10 minutes at room temperature. This served to pellet the cells and allow the removal of the media.
Doxorubicin and dextrin doxorubicin were then dissolved in RPMI 1640 containing 10% FCS and filter sterilised through 0.2μ filters (Aerodisk). Following this, the pellet was resuspended in media containing the appropriate concentration of drug or drug conjugate.
The tetrazolium dye MTT was used to assess cell viability. The cells were incubated for 67 h prior to the addition of the MTT. After a further incubation period of 5 h, the cells in suspension were subjected to centrifugation, the media removed and 100 μl of optical grade DMSO (Sigma) was added. The plates were read at 550 mn using a Titerteck plate reader. Results (OD) were expressed as a % of the OD seen in cell cultures containing no polymer.

[2] = test system: rat red blood cells; experiment: Stability of rat red blood cells incubated in vitro (haemoglobin release, % lysis); assay type: cell-based; conditions: rat RBC 2% w/v suspension in PBS; relative to Triton X-100 = 100% lysis
Protocol: Dextrins of different molecular weight were incubated with isolated rat red blood cells (RBC) and haemoglobin release detected spectrophotometrically. Various dilutions of the test polymers (dextrins) and of the reference polymer polyethyleneimine were made up in PBS and mixed with an equal volume of fresh 2% w/v suspension of rat RBCs. This preparation was centrifuged at 1500×g for 10 min at room temperature. Then, 100 μl of the supernatant was removed and the levels of haemoglobin quantitated spectrophotometrically at […]. The results illustrated in FIG. 1 were expressed as % lysis relative to that of a Triton X-100 control (Sigma) which gave 100% RBC lysis.

Row | Compound | toxicity to L1210 cells in vitro [1] | red cell lysis (haemoglobin release) [2]
1 | COc1cccc2c1C(=O)c1c(O)c3c(c(O)c1C2=O)C[C@@](O)(C(=O)CO)C[C@@H]3O[C@H]1C[C@H](N)[C@H](O)[C@H](C)O1 [doxorubicin] | toxic | 
2 | Triton X-100 |  | caused haemoglobin release
